Results reported in ChEMBL document CHEMBL1201862, “PubChem BioAssay data set” (2004).
Active and inactive are the calls of the source. Unless noted, the calls are words filed in the database; no cut-off is given here.

What was measured:
[1] = molecular target: T1, Replicative DNA helicase DnaB (Mycobacterium tuberculosis, UniProt P9WMR3); assay: DnaB intein splicing inhibitors, dose response, biochemical, cell-free fluorescence (AID 449749); format: functional
T1 sequence (P9WMR3 whole entry): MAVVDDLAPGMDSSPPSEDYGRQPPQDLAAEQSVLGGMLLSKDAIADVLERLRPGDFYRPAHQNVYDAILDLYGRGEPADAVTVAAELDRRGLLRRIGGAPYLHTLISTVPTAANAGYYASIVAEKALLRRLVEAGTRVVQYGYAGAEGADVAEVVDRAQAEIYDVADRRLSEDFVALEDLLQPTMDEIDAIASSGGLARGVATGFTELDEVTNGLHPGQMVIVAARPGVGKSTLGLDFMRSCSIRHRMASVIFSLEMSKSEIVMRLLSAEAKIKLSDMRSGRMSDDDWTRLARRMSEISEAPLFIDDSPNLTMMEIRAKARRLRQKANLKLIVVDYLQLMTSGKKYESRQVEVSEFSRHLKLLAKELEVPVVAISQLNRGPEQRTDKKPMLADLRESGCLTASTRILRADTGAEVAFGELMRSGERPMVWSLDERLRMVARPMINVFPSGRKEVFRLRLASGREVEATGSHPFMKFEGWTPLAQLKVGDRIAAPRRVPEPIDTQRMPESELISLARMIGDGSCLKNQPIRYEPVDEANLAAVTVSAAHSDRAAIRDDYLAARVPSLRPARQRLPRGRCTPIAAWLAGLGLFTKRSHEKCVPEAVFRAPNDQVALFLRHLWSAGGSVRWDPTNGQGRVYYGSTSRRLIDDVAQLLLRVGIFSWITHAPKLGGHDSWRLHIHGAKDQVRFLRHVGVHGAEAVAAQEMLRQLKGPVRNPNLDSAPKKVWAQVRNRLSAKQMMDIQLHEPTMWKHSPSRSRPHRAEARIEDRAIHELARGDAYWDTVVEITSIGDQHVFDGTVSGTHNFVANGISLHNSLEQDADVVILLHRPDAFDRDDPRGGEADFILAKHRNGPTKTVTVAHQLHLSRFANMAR

[2] = Intein inhibitors as potential Tuberculosis drugs, a cytotoxicity screen. [Related pubchem assays (depositor defined):AID2221, AID2223, AID434968, AID435010, AID449749, AID449750, AID489010]; format: functional
Protein RecA = molecular target: T2, Protein RecA (Mycobacterium tuberculosis, UniProt P9WHJ3); assay: Fluorescence Cell-Free Homogeneous Dose Retest to Identify Inhibitors of RecA-Intein Splicing Activity. [Related pubchem assays (depositor defined):AID2097, AID2223, AID489010, AID492950]; format: functional
T2 sequence (P9WHJ3 whole entry): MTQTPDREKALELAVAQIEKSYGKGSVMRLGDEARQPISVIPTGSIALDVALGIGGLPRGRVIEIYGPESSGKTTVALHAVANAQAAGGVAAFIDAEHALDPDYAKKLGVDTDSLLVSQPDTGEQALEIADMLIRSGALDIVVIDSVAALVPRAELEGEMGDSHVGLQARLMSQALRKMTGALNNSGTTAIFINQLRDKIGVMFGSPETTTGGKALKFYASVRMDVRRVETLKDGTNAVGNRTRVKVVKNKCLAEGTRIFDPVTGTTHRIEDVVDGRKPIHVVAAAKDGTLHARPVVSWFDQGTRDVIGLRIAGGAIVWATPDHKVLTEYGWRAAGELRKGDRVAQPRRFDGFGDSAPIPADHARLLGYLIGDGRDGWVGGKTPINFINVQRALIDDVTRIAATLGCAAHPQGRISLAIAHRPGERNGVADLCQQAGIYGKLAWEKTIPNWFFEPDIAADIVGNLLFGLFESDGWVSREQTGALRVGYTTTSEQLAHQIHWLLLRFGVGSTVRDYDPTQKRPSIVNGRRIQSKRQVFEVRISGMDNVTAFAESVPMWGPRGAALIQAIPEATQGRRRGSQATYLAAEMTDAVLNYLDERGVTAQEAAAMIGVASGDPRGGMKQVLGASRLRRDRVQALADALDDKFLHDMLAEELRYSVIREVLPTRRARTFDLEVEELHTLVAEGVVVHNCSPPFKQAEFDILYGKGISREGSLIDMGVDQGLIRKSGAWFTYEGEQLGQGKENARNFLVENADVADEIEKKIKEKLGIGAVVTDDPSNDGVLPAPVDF

[3] = molecular target: T3, Heat shock factor protein 1 (Mus musculus, UniProt P38532); assay: HSF1 potentiators in luciferase reporter cells, confirmation, cell-based, NIH3T3, luminescence, dose retest (AID 435004); format: functional;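 further: stress induced by proteasome inhibitor MG132 added 30 min after compound; luciferase reporter driven by HSF1 response element in NIH3T3 cells; actives raise luminescence as potentiators of the MG132 stress response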
T3 sequence (P38532 whole entry): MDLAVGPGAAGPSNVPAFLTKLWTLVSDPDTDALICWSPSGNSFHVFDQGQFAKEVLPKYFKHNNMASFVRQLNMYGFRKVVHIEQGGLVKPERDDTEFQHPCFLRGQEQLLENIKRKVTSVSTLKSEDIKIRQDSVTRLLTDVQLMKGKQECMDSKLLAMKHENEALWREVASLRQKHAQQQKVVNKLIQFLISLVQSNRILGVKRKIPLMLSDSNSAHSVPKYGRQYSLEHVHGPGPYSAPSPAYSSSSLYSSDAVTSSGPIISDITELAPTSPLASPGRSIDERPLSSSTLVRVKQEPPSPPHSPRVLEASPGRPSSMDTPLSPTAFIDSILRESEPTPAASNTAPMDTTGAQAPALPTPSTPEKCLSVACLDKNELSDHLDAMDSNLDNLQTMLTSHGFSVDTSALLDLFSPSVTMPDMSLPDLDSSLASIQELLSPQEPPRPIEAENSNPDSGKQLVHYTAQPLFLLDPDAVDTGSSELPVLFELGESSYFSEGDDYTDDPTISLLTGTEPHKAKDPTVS

[4] = molecular target: T4, Histone-lysine N-methyltransferase NSD2 (Homo sapiens, UniProt O96028); format: biochemical
T4 sequence (O96028 whole entry): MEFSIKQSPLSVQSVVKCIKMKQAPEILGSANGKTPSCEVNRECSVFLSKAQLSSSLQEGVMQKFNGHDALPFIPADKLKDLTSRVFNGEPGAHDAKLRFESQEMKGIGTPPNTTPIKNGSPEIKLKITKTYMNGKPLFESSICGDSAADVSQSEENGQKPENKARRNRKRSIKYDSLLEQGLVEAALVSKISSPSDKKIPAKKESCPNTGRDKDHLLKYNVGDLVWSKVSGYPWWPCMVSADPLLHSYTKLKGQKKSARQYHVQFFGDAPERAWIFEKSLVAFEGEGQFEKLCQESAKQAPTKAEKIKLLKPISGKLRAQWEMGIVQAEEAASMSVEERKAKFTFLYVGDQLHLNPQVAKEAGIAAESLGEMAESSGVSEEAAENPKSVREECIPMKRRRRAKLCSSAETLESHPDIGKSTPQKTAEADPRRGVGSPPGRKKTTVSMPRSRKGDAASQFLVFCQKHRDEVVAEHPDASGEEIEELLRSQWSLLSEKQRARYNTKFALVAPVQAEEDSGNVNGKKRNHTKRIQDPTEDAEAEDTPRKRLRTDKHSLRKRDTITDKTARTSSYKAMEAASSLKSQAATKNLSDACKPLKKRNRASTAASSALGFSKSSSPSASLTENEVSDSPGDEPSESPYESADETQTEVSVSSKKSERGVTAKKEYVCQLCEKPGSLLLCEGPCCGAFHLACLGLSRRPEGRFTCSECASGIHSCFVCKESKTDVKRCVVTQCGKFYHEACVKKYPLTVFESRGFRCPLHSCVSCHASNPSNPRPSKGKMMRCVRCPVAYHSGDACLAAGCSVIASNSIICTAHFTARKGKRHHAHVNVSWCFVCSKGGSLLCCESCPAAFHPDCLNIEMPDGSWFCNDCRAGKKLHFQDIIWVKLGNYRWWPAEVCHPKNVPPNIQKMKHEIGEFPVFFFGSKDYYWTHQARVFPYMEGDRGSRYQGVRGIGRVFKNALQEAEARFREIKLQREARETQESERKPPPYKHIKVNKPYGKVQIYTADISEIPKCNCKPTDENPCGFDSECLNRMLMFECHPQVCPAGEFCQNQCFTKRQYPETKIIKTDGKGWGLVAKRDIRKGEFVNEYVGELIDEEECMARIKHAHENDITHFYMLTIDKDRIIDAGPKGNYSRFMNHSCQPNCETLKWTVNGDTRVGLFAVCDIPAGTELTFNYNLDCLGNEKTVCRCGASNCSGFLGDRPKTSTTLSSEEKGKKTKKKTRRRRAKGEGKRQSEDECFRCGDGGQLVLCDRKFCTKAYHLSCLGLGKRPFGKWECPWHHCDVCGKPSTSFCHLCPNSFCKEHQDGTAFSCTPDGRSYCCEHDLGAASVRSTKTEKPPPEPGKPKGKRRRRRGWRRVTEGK

INS1 = assay: beta cell apoptosis inhibitors, cytokine rescue, dose response, luminescence, retest (AID 449756); format: functional, cell-based; details: Rattus norvegicus;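 further: cell death triggered by IL-1 beta plus TNF-alpha plus IFN-gamma mixture; protective hits raise ATP signal compared with cytokine alone wells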
Integrin alpha-4 = Integrin alpha-4 (Homo sapiens, UniProt P13612); assay: VLA-4 integrin allosteric ligands, SAR follow-up, cell-based, LIBS antibody binding, flow cytometry (AID 488791); format: functional
Integrin alpha-4, sequence (P13612 whole entry): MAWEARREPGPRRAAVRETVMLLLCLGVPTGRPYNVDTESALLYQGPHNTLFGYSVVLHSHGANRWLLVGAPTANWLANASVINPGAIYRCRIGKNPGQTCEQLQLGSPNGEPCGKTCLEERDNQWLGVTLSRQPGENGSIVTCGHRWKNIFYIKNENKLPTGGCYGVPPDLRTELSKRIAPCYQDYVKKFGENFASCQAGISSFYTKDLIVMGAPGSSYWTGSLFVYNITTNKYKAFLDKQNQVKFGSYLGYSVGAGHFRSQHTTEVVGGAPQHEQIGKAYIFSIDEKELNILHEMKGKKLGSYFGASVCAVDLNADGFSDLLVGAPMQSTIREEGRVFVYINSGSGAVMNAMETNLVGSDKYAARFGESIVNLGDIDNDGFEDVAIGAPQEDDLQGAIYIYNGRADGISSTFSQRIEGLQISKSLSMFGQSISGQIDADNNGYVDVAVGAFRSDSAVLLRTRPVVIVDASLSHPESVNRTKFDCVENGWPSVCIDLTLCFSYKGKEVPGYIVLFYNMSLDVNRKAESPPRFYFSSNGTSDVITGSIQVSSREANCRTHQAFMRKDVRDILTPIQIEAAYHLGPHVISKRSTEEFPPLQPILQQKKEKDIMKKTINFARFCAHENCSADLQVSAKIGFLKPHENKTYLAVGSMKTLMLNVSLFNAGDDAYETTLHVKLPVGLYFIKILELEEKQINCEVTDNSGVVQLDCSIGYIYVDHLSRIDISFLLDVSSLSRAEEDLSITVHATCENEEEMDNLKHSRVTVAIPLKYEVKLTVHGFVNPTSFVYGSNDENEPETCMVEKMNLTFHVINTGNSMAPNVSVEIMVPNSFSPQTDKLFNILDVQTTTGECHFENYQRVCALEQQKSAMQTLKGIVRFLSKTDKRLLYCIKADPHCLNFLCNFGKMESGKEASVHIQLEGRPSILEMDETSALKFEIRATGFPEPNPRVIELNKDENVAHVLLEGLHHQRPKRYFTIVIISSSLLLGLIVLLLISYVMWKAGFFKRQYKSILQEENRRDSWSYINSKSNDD

[5] = molecular target: T5, Microphthalmia-associated transcription factor (Homo sapiens, UniProt O75030); assay: TRPM1 promoter luciferase signal decrease, dose response, MITF inhibitor project, cell-based, SK-MEL-5, cherry-picked, set 3 (AID 493073); format: functional
T5 sequence (O75030 whole entry): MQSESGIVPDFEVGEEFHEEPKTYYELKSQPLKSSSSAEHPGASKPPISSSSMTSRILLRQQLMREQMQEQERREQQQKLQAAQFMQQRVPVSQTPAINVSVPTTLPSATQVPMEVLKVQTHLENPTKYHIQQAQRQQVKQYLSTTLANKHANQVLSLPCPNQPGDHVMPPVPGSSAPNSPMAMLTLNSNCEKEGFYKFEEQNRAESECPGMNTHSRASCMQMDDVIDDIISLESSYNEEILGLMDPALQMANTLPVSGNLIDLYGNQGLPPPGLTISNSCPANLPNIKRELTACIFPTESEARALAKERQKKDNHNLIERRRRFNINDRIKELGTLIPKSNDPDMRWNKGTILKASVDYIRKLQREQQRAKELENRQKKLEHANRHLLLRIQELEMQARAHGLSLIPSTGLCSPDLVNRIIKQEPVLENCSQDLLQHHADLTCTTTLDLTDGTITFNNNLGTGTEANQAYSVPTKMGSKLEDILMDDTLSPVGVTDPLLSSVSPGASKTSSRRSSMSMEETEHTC

[6] = molecular target: T5, Microphthalmia-associated transcription factor; assay: TRPM1 promoter luciferase signal decrease, dose response, MITF inhibitor project, cell-based, SK-MEL-5, cherry-picked, set 4 (AID 493102); format: functional
[7] = molecular target: T5, Microphthalmia-associated transcription factor; assay: MITF Measured in Cell-Based System Using Plate Reader - 2084-01_Inhibitor_DoseNoFile_CherryPick_Activity_Set2. [Related pubchem assays (depositor defined):AID488944]; format: functional
[8] = molecular target: T6, Kappa-type opioid receptor (Homo sapiens, UniProt P41145); assay: SAR analysis of small molecule antagonists of the kappa opioid receptor via a luminescent beta-arrestin assay - Set 3. [Related pubchem assays (depositor defined):AID1777, AID1778, AID1785, AID1786, AID1966, AID2133, AID2136, AID2285, AID2495]; format: functional
T6 sequence (P41145 whole entry): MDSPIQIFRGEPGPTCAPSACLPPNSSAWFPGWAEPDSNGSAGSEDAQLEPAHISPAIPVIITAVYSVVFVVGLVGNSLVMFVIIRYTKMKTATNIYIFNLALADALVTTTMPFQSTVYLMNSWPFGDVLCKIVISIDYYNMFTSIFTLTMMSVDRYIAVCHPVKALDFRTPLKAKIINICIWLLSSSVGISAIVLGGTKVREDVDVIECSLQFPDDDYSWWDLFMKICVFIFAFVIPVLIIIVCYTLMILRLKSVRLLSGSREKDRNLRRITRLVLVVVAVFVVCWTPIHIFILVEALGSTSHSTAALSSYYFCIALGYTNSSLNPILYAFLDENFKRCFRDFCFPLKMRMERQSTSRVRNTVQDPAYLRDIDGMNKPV

[9] = molecular target: Delta-type opioid receptor (Homo sapiens, UniProt P41143); assay: SAR Analysis of Antagonists of the DOR Receptor using an Image-Based Assay - Set 3. [Related pubchem assays (depositor defined):AID1777, AID1785]; format: functional;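 further: U2OS cells expressing DOR1 and beta-arrestin GFP stimulated with 100 nM SNC80; imaging of GFP-tagged beta-arrestin moving into spots after receptor activation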
Delta-type opioid receptor, sequence (P41143 whole entry): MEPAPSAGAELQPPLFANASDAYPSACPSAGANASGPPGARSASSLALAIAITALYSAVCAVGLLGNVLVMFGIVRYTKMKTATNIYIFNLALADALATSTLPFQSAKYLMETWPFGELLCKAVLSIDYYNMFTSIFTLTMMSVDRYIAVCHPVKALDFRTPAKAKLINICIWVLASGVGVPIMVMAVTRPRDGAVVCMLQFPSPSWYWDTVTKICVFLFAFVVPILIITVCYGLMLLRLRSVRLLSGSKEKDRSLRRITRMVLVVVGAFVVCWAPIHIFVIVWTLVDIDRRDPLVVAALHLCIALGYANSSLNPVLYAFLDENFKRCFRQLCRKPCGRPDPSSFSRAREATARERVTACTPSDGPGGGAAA

[10] = molecular target: T6, Kappa-type opioid receptor; assay: SAR analysis of small molecule antagonists of the kappa opioid receptor via a luminescent beta-arrestin assay - Set 6. [Related pubchem assays (depositor defined):AID1777, AID1778, AID1785, AID1786, AID1966, AID2133, AID2136, AID2285]; format: functional
[11] = molecular target: T6, Kappa-type opioid receptor; assay: SAR analysis of Antagonists of the Kappa Opioid Receptor (KOR) using an Image-Based Assay - Set 4. [Related pubchem assays (depositor defined):AID1777, AID1785]; format: functional
Mu-type opioid receptor = Mu-type opioid receptor (Homo sapiens, UniProt P35372); assay: SAR Analysis of Antagonists of the MOR Receptor using an Image-Based Assay - Set 3. [Related pubchem assays (depositor defined):AID1777, AID1785, AID1786, AID1966, AID2133, AID2136, AID2284, AID2285, AID2420]; format: functional
Mu-type opioid receptor, sequence (P35372 whole entry): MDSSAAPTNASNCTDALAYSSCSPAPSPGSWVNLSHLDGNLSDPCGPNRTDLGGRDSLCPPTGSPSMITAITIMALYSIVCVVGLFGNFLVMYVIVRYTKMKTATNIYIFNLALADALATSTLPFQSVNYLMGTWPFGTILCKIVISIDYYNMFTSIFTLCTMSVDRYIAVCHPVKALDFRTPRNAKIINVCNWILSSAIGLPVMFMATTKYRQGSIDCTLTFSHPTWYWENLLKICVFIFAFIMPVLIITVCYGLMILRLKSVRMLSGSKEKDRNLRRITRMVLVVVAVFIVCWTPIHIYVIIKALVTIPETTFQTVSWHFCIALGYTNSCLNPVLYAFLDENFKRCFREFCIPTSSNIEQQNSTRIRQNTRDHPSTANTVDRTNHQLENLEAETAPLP
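Wherever CC50 is given: cells exposed to compound for 72 hours before luminescence readout.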

## CN(C1=C(NC(=O)c2ccccc2)C(=O)c2ccccc2C1=O)C1CCS(=O)(=O)C1 (stereo not given)
[1]
  AC50: 1.7 µM (active)
[2]
  CC50: 19.2 µM (active)
Protein RecA
  EC50: 0.108 µM (active)
[3]
  EC50: 30.9 µM (active)
[4]
  AC50: 4.69 µM (active)
INS1
  AC50: 3 µM (active)

## FC(F)Oc1ccc(C2=Nn3c(nnc3-c3ccccc3Cl)SC2)cc1OCC1CC1
Integrin alpha-4
  EC50: 3.89 µM (active)

## O=C(COC(=O)C1=COCCO1)Nc1c(F)cccc1F
[5]
  AC50: > 350 µM (inactive)
[6]
  AC50: > 350 µM (inactive)
[7]
  AC50: > 350 µM (inactive)

## COc1ccc(N2CCN(CCCNC(=O)Cn3c(=O)c4cccn4c4c(C)ccnc43)CC2)c(OC)c1
[8]
  IC50: 0.154 µM (active)
[9]
  IC50: > 32 µM (inactive)
[10]
  IC50: 0.225 µM (active)
[11]
  IC50: 0.00406 µM (active)
Mu-type opioid receptor
  IC50: 30.9 µM (inactive)
